One block for each compound: values may come before it.
Key:
[1] = test system: LDL-c; assay: LDL levels in LDLr−/− mice after mRNA encoding the LDL receptor; assay type: in vivo, LDLR knockout mice; conditions: Mus musculus; Table 7b; LDLr−/− mice, 0.5 mpk, LDLr; read-out: LDL levels lipid/untreated LDLr−/− mice 0.5 mpk, LDLr
[2] = pKa of nanoparticle compositions; assay type: physicochemical; conditions: rows without footnote mark
[3] = Particle size and polydispersity index of nanoparticle compositions (Zetasizer Nano ZS); assay type: physicochemical
How it was run: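 Zetasizer Nano ZS; samples in 1×PBS; read-out: particle size plus polydispersity index.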

[4] = Encapsulation efficiency of RNA (QUANT-IT RIBOGREEN RNA assay); assay type: physicochemical
How it was run: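 RiboGreen fluorescence (ex ~480, em ~520 nm) measured after 15 min at 37 °C on samples at ~5 μg/mL in TE, pH 7.5, ± 2% Triton X-100 solution. After blank subtraction, free RNA is given as intact-sample signal divided by disrupted-sample signal.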

[5] = test system: IP-10; assay: Cytokine production induced by sample formulations: IP-10; assay type: in vivo; conditions: mice, i.v., 0.5 mpk, 6 hours
How it was run: (§1)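 Cytokine levels were quantified at 6 hours in mice given the nanoparticle compositions i.v. at 0.5 mpk. MC3 standard formulation and PBS served as comparators.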

[6] = test system: modified luciferase expression; assay: Expression of Luc in different organs (liver, lung, spleen, femur) 6 hours after intravenous administration; assay type: in vivo; conditions: Table 20-3, mice, i.v., 0.5 mpk
Protocol: The efficacy of the nanoparticle compositions presented in Tables 1, 1a, 17-1, 19-1, 20-1 and 21-1 was further evaluated by measuring the expression of modified luciferase in the liver, lung, spleen, and femur upon administration of a given composition. Formulations were administered intravenously to mice (n=3) at a dosage of 0.5 mpk and bioluminescence measured after 6 hours. The standard MC3 formulation and a PBS control were also tested.

[7] = test system: modified luciferase (Luc) expression; assay: Expression upon intramuscular administration of Luc mRNA and H10 mRNA formulations; assay type: in vivo; conditions: 6 hours after intramuscular administration
Protocol: Sample formulations including both modified luciferase (Luc) mRNA and H10 mRNA were prepared and administered intramuscularly at day 1 and day 21 and the resulting expression and immunogenicity were evaluated simultaneously. Formulations including compounds according to formula (20-I) were prepared and administered at doses of 0.001 and 0.01 mpk (e.g., doses of 0.0005 mpk of a formulation including Luc mRNA and a formulation including H10 mRNA or doses of 0.005 mpk of a formulation including Luc mRNA and a formulation including H10 mRNA). As shown in Table 20-4, the total flux was higher upon administration of the second dose for each composition and at each dose level. Total flux was higher for the higher dose level.

[8] = test system: luciferase (Luc) mRNA expression; assay: Expression of Luc induced by sample formulations, whole-body bioluminescence after intravenous administration; assay type: in vivo; conditions: mice, i.v., 0.5 mg/kg
How it was run: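 Read-out is whole-body bioluminescence at 3, 6 and 24 h after a single intravenous dose of 0.5 mg/kg Luc mRNA in nanoparticle formulations. Groups of n=6 mice; PBS and standard MC3 formulation as references.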

[9] = test system: IL-6; assay: Cytokine production induced by sample formulations: IL-6; assay type: in vivo; conditions: mice, i.v., 0.5 mpk, 6 hours
How it was run: as §1

[10] = test system: Luc expression; assay: Luc expression in CD-1 mice (AUC relative to MC3); assay type: in vivo; conditions: Table 7c
Protocol: FIG. 15 is a graph summarizing luciferase expression levels at 6 h after administration of nanoparticle compositions containing compounds of the disclosure to CD-1 mice at a dose of 0.5 mpk. Total light flux values were acquired via body luminescent imaging (BLI) 6 h after administration. In this Figure, the numbers 1-7 and 10 refer to the compositions containing Compounds 4-10 and MC3 respectively.
(§2) In contrast, hEPO expression in rats induced by administration of a nanoparticle composition including a compound according to one of formulae (I), (Ia1)-(Ia6), (Ib), (II), (IIa), (III), and (IIIa) was substantially […] than that measured for MC3. […] Table 7c and 7d show additional protein expressions and clearance data from compositions with various compounds disclosed herein as compared to with MC3.

[11] = Lipid clearance: % dose remaining in mouse liver 6 h and 24 h after administration of nanoparticle compositions; assay type: in vivo, CD-1 mice; conditions: Table 7c
Source text: as §2

[12] = Table 1, rows without footnote mark
[13] = Table 20-4, formula (20-I), in pg/mL (unit assumed)
[14] = Table 20-1, rows without footnote mark

- % Dose Remaining 6 hr [11]: 21.18%
- % Dose Remaining 24 hr [11]: 15.98%
- PDI ([3]; Table 1b): 0.23
- Size (nm) ([3]; Table 1b): 105.7 nm
- EE (%) ([4]; Table 1b): 98.8%
SMILES: CCCCCCCCCN(CCCCC(=O)OCCCC)CCC1CCN(C(=O)CN(CCCCCCCCC)CCN(CCCCCCCCC)CCCCCCCCC)CC1 [Compound 60, Butyl 5-((2-(1-(N-(2-(dinonylamino)ethyl)-N-nonylglycyl)piperidin-4-yl)ethyl)(nonyl)amino)pentanoate]
- AUC (p/s*h) [10]: 2.84E+11 p/s*h

- % Dose Remaining 6 hr [11]: 1.31%
- % Dose Remaining 24 hr [11]: 0.13%
- PDI ([3]; Table 1b): 0.23
- Size (nm) ([3]; Table 1b): 86.8 nm
- EE (%) ([4]; Table 1b): 99.1%
SMILES: CCCCCCCCCN(CCCOC(=O)CCCCC)CCC1CCN(C(=O)CN(CCCCCCCCC)CCN(CCCCCCCCC)CCCCCCCCC)CC1 [Compound 61, 3-((2-(1-(N-(2-(Dinonylamino)ethyl)-N-nonylglycyl)piperidin-4-yl)ethyl)(nonyl)amino)propyl hexanoate]
- AUC (p/s*h) [10]: 4.65E+11 p/s*h

- % Dose Remaining 6 hr [11]: 12.39%
- % Dose Remaining 24 hr [11]: 9.25%
- PDI ([3]; Table 1b): 0.18
- Size (nm) ([3]; Table 1b): 99.9 nm
- EE (%) ([4]; Table 1b): 91.0%
SMILES: CCCCCCCCCN(CCCC(=O)OCCCCC)CCN(CCCCCCCCC)CC(=O)N1CCN(C(=O)CN(CCCCCCCCC)CCCC(=O)OCCCCC)CC1 [Compound 71, Pentyl 4-(nonyl(2-(4-(N-nonyl-N-(2-(nonyl(4-oxo-4-(pentyloxy)butyl)amino)ethyl)glycyl)piperazin-1-yl)-2-oxoethyl)amino)butanoate]
- AUC (p/s*h) [10]: 1.77E+11 p/s*h

- % Dose Remaining 6 hr [11]: 7.06%
- % Dose Remaining 24 hr [11]: 6.40%
- PDI ([3]; Table 1b): 0.22
- Size (nm) ([3]; Table 1b): 102.5 nm
- EE (%) ([4]; Table 1b): 92.7%
SMILES: CCCCCCCCCN(CCCCCCCCC)CCN(CCCCCCCCC)CC(=O)N1CCN(C(=O)CN(CCCC(=O)OCCCCC)CCCC(=O)OCCCCC)CC1 [Compound 72, Dipentyl 4,4′-((2-(4-(N-(2-(dinonylamino)ethyl)-N-nonylglycyl)piperazin-1-yl)-2-oxoethyl)azanediyl)dibutyrate]
- AUC (p/s*h) [10]: 6.53E+10 p/s*h

Continued, compound first:

SMILES: CCCCCCCCCCCCN(CCN(CCCCCCCCC)CCCCCCCCC)CC(=O)N1CCN(C(=O)CN(CCCCCCCCC)CCCCCCCCC)CC1 [Compound 5, 2-(Dinonylamino)-1-(4-(N-(2-(dinonylamino)ethyl)-N-dodecylglycyl)piperazin-1-yl)ethan-1-one]
- response vs control in vivo at 0.5 mg/kg [1]: 47%
- pKa ([2]; Table 1): 7.01
- PDI [3, 12]: 0.140
- Size (nm) ([3]; Table 1, rows without footnote mark (lipid:DOPE:cholesterol:PEG-DMG 40:20:38.5:1.5, Luc mRNA; MC3 standard formulation)): 85.1 nm
- EE (%) [4, 12]: 98.1%

SMILES: CCCCCCCCCN(CCCCCCCCC)CCN(CCO)CCCCCC(=O)OCCCCC [Compound 20-6, Pentyl 6-((2-(dinonylamino)ethyl)(2-hydroxyethyl)amino)hexanoate]
- IP-10 [5, 13]: 25.3
- IP-10 induction, rank or comparison with IL-6 (in words) [5]: lowest
- Total Flux Liver ([6]; liver): 7.75E+05
- Total Flux Lung ([6]; lung): 2.32E+04
- Total Flux Spleen ([6]; spleen): 2.35E+05
- pKa ([2]; Table 20-1): 6.73
- Total flux (p/s) 0.001 mpk Dose 1 ([7]; 0.001 mpk, Dose 1): 8.57E+05 p/s
- Total flux (p/s) 0.001 mpk Dose 2 ([7]; 0.001 mpk, Dose 2): 9.79E+05 p/s
- Total flux (p/s) 0.01 mpk Dose 1 ([7]; 0.01 mpk, Dose 1): 3.41E+06 p/s
- Total flux (p/s) 0.01 mpk Dose 2 ([7]; 0.01 mpk, Dose 2): 6.04E+06 p/s
- PDI [3, 14]: 0.220
- Size (nm) [3, 14]: 82.5 nm
- Total Flux 3 hours ([8]; Table 20-2, 3 hours): 3.39E+10
- Total Flux 6 hours ([8]; Table 20-2, 6 hours): 5.44E+06
- Total Flux 24 hours ([8]; Table 20-2, 24 hours): 5.48E+05
- total flux after 3 hours, rank within the named table (in words) ([8]; 3 hours): highest after 3 hours
- total flux after 24 hours, rank within the named table (in words) ([8]; 24 hours): lowest
- IL-6 [9, 13]: 0
- IL-6 induction, rank within the named table (in words) [9]: lowest
- EE (%) [4, 14]: 94.7%

SMILES: CCCCCCCCCN(CCCCCCCCC)CCN(CCCCCCCCC)CC(=O)N1CCN(C(=O)CN(CCCCCCCCC)CCCCCCC(=O)OCC)CC1 [Compound 53, Ethyl 7-((2-(4-(N-(2-(dinonylamino)ethyl)-N-nonylglycyl)piperazin-1-yl)-2-oxoethyl)(nonyl)amino)heptanoate]
- AUC (p/s*h) [10]: 9.22E+09 p/s*h
- % Dose Remaining 6 hr [11]: 1.35%
- % Dose Remaining 24 hr [11]: 0.77%
- PDI ([3]; Table 1b): 0.23
- Size (nm) ([3]; Table 1b): 103.0 nm
- EE (%) ([4]; Table 1b): 82.8%

SMILES: CCCCCCCCCN(CCCCCCCCC)CCN(CCCCCCCCC)CC(=O)N1CCN(C(=O)CN(CCCCCCCCC)CCCCCC(=O)OCCC)CC1 [Compound 54, Propyl 6-((2-(4-(N-(2-(dinonylamino)ethyl)-N-nonylglycyl)piperazin-1-yl)-2-oxoethyl)(nonyl)amino)hexanoate]
- AUC (p/s*h) [10]: 1.89E+10 p/s*h
- % Dose Remaining 6 hr [11]: 5.18%
- % Dose Remaining 24 hr [11]: 4.77%
- PDI ([3]; Table 1b): 0.23
- Size (nm) ([3]; Table 1b): 93.0 nm
- EE (%) ([4]; Table 1b): 96.9%

SMILES: CCCCCCCCCN(CCCCCCCCC)CCN(CCCCCCCCC)CC(=O)N1CCN(C(=O)CN(CCCCCCCCC)CCCCC(=O)OCCCC)CC1 [Compound 55, Butyl 5-((2-(4-(N-(2-(dinonylamino)ethyl)-N-nonylglycyl)piperazin-1-yl)-2-oxoethyl)(nonyl)amino)pentanoate]
- AUC (p/s*h) [10]: 2.00E+10 p/s*h
- % Dose Remaining 6 hr [11]: 2.58%
- % Dose Remaining 24 hr [11]: 1.60%
- PDI ([3]; Table 1b): 0.23
- Size (nm) ([3]; Table 1b): 119.5 nm
- EE (%) ([4]; Table 1b): 95.2%

SMILES: CCCCCCCCCN(CCCCCCCCC)CCN(CCCCCCCCC)CC(=O)N1CCN(C(=O)CN(CCCCCCCCC)CCCOC(=O)CCCCC)CC1 [Compound 56, 3-((2-(4-(N-(2-(Dinonylamino)ethyl)-N-nonylglycyl)piperazin-1-yl)-2-oxoethyl)(nonyl)amino)propyl Hexanoate]
- AUC (p/s*h) [10]: 1.77E+11 p/s*h
- % Dose Remaining 6 hr [11]: 1.21%
- % Dose Remaining 24 hr [11]: 0.16%
- PDI ([3]; Table 1b): 0.24
- Size (nm) ([3]; Table 1b): 117.4 nm
- EE (%) ([4]; Table 1b): 99.0%

SMILES: CCCCCCCCCN(CCCCCCCC(=O)OC)CCC1CCN(C(=O)CN(CCCCCCCCC)CCN(CCCCCCCCC)CCCCCCCCC)CC1 [Compound 57, Methyl 8-((2-(1-(N-(2-(dinonylamino)ethyl)-N-nonylglycyl)piperidin-4-yl)ethyl)(nonyl)amino)octanoate]
- AUC (p/s*h) [10]: 1.21E+11 p/s*h
- % Dose Remaining 6 hr [11]: 0.88%
- % Dose Remaining 24 hr [11]: 0.24%
- PDI ([3]; Table 1b): 0.23
- Size (nm) ([3]; Table 1b): 101.9 nm
- EE (%) ([4]; Table 1b): 98.8%

SMILES: CCCCCCCCCN(CCCCCCC(=O)OCC)CCC1CCN(C(=O)CN(CCCCCCCCC)CCN(CCCCCCCCC)CCCCCCCCC)CC1 [Compound 58, Ethyl 7-((2-(1-(N-(2-(dinonylamino)ethyl)-N-nonylglycyl)piperidin-4-yl)ethyl)(nonyl)amino)heptanoate]
- AUC (p/s*h) [10]: 1.38E+11 p/s*h
- % Dose Remaining 6 hr [11]: 1.37%
- % Dose Remaining 24 hr [11]: 0.61%
- PDI ([3]; Table 1b): 0.23
- Size (nm) ([3]; Table 1b): 112.8 nm
- EE (%) ([4]; Table 1b): 98.9%

SMILES: CCCCCCCCCN(CCCCCC(=O)OCCC)CCC1CCN(C(=O)CN(CCCCCCCCC)CCN(CCCCCCCCC)CCCCCCCCC)CC1 [Compound 59, Propyl 6-((2-(1-(N-(2-(dinonylamino)ethyl)-N-nonylglycyl)piperidin-4-yl)ethyl)(nonyl)amino)hexanoate]
- AUC (p/s*h) [10]: 1.19E+11 p/s*h
- % Dose Remaining 6 hr [11]: 6.99%
- % Dose Remaining 24 hr [11]: 5.03%
- PDI ([3]; Table 1b): 0.23
- Size (nm) ([3]; Table 1b): 104.7 nm
- EE (%) ([4]; Table 1b): 98.6%

Source: US10195156B2, “Compounds and compositions for intracellular delivery of agents” (ModernaTX, Inc., priority 2015, dated 2019)
